Experimental data from PubChem BioAssay (NCI).
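All cell lines were grown in 96-well plates and treated with compound for 48 hours. The concentration for full growth arrest is given as TGI.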

Assays:
Test in all cases: NCI-60 cell line screen, 48 h
UACC-62 melanoma = tested on: UACC-62 melanoma
KM12 colon = tested on: KM12 colon
UACC-257 melanoma = tested on: UACC-257 melanoma
NCI-H226 lung = tested on: NCI-H226 lung
LOX IMVI melanoma = tested on: LOX IMVI melanoma
PC-3 prostate = tested on: PC-3 prostate
ACHN renal = tested on: ACHN renal
OVCAR-8 ovarian = tested on: OVCAR-8 ovarian
SR leukemia = tested on: SR leukemia
OVCAR-5 ovarian = tested on: OVCAR-5 ovarian
HS 578T breast = tested on: HS 578T breast
HCT-116 colon = tested on: HCT-116 colon
OVCAR-3 ovarian = tested on: OVCAR-3 ovarian
SK-MEL-28 melanoma = tested on: SK-MEL-28 melanoma
DU-145 prostate = tested on: DU-145 prostate
NCI-H522 lung = tested on: NCI-H522 lung

Row | Compound | TGI (UACC-62 melanoma) [µM] | TGI (KM12 colon) [µM] | TGI (UACC-257 melanoma) [µM] | TGI (NCI-H226 lung) [µM] | TGI (LOX IMVI melanoma) [µM] | TGI (PC-3 prostate) [µM] | TGI (ACHN renal) [µM] | TGI (OVCAR-8 ovarian) [µM] | TGI (SR leukemia) [µM] | TGI (OVCAR-5 ovarian) [µM] | TGI (HS 578T breast) [µM] | TGI (HCT-116 colon) [µM] | TGI (OVCAR-3 ovarian) [µM] | TGI (SK-MEL-28 melanoma) [µM] | TGI (DU-145 prostate) [µM] | TGI (NCI-H522 lung) [µM]
1 | Cn1c(Cl)cn2c3nc4ccccc4nc3c(=O)c(C#N)c12 | > 100 | > 100 | > 100 | > 100 | > 100 | > 100 | > 100 | > 100 | > 100 | > 100 | > 100 | > 100 | > 100 | > 100 | > 100 | > 100
2 | CCOc1cc2c(cc1O)CC[C@@H]1[C@@H]2CC[C@]2(C)C(N)CC[C@@H]12 (stereo partly specified) | 16.8 | 8.03 | 16.3 | 10.4 | 10.9 | 13.7 | 26.2 | 11.2 | 7 | 36.9 | 23.2 | 12.6 | 24.7 | 23.6 | 7.08 | 11.9
3 | COc1ccc(C2=NN(C(N)=S)C(c3ccccc3)C2)cc1 (stereo unspecified) | > 100 | > 100 | 99.1 | > 100 | > 100 | 97.5 | > 100 | > 100 | 77.3 | > 100 | > 100 | > 100 | > 100 | > 100 | > 100 | 84.1
4 | O=[N+]([O-])c1cc2c(c([N+](=O)[O-])c1)NCc1ccccc1O2 | > 100 | > 100 | > 100 | > 100 | > 100 | > 100 | > 100 | > 100 | > 100 | > 100 | > 100 | > 100 | > 100 | > 100 | > 100 | > 100
5 | N#Cc1ccc(C(=O)/C=C/c2ccc(O)c(O)c2)cc1 | 32.5 | 30.5 | 30 | 62.7 | 26.3 | 30 | 31.8 | > 54.8 | 6.27 | 33.5 | > 76.6 | 22.8 | 29.3 | 29 | 30 | 7.54
6 | Oc1ccc(Cc2nccc3cc(O)c(O)cc23)cc1O | > 100 | > 100 | 87.6 | > 100 | > 100 | > 100 | > 100 | > 100 | 96.8 | > 100 | > 100 | 35.1 | > 100 | > 100 | > 100 | > 100
7 | O=P1(c2ccccc2)C(c2ccccc2)=CC=C1c1ccccc1 | > 100 | 50.1 | > 100 | > 100 | 37.8 | 62.8 | > 100 | 43.4 | 52.7 | > 100 | > 100 | > 100 | 89.8 | > 100 | > 100 | 65.2
8 | Cc1ccc2c(c1)CC1(Cc3c(C)cccc3C1=O)C2=O (stereo unspecified) | > 100 | > 100 | > 100 | > 100 | > 100 | > 100 | > 100 | > 100 | > 100 | > 100 | 87.4 | > 100 | > 100 | > 100 | > 100 | > 100
9 | Nc1nc2n[nH]nc2c(=O)[nH]1 | 2.62 | > 100 | 56.2 | 57.5 | 6.88 | > 100 | > 59.7 | > 100 | 20.4 | > 88.4 | 20.4 | 8.95 | 73.8 | 9.4 | > 57.5 | 40.9
10 | C=CC[C@@]1([C@H](C=C)COCc2ccc(OC)cc2)CC[C@]2(C)OC(C)(C)[C@@H](c3ccccc3)N2C1=S | > 100 | > 100 | > 100 | > 100 | > 100 | > 100 | > 100 | > 100 | > 100 | > 100 | > 100 | > 100 | > 100 | > 100 | > 100 | > 100
11 | CC1=NN(C(=O)CC(=O)Nc2ccc(C)cc2)C(=O)C1N=Nc1ccc(S(=O)(=O)c2ccc(N=NC3C(=O)N(C(=O)CC(=O)Nc4ccc(C)cc4)N=C3C)cc2)cc1 (stereo unspecified) | > 100 | > 100 | > 100 | > 100 | > 100 | > 100 | > 100 | > 100 | > 100 | > 100 | > 100 | > 100 | > 100 | > 100 | > 100 | > 100
